Reference: ChEMBL document CHEMBL4342483, “Codrug Approach for the Potential Treatment of EML4-ALK Positive Lung Cancer” (ACS Med Chem Lett, 2020)
Calls of active or inactive are those of the source. The rule behind the calls is not given here.

What was measured:
[1] = Drug degradation in rat plasma assessed as compound hydrolysis with zero order rate constant; type: ADME, cell-free
[2] = Half life in phosphate buffer and DMSO supplemented with 4% bovine serum albumin at pH 6.5 by HPLC analysis; type: physicochemical; conditions: phosphate buffer and DMSO with 4% bovine serum albumin
[3] = Hydrolytic stability in phosphate buffer and DMSO supplemented with 4% bovine serum albumin assessed as rate constant at pH 7.4 by HPLC analysis
[4] = Half life in phosphate buffer and DMSO supplemented with 4% bovine serum albumin at pH 7.4 by HPLC analysis; type: physicochemical; conditions: phosphate buffer and DMSO with 4% bovine serum albumin
[5] = Half life in rat plasma; type: ADME, cell-free
[6] = Hydrolytic stability in phosphate buffer and DMSO supplemented with 4% bovine serum albumin assessed as rate constant at pH 6.5 by HPLC analysis
[7] = Prodrug conversion in phosphate buffer at pH 7.4 and d6-DMSO (1:1) assessed as rate constant for release of active compound mimetics by kinetic time-course NMR method; type: ADME
[8] = Prodrug conversion in phosphate buffer at pH 6.4 and d6-DMSO (1:1) assessed as rate constant for release of active compound mimetics by kinetic time-course NMR method; type: ADME
[9] = Prodrug conversion in phosphate buffer at pH 6.8 and d6-DMSO (1:1) assessed as rate constant for release of active compound mimetics by kinetic time-course NMR method; type: ADME
[10] = Half life in phosphate buffer at pH 6.4 and d6-DMSO (1:1) by kinetic time-course NMR method; type: physicochemical; conditions: phosphate buffer and d6-DMSO (1:1)
[11] = Half life in phosphate buffer at pH 6.8 and d6-DMSO (1:1) by kinetic time-course NMR method; type: physicochemical; conditions: phosphate buffer and d6-DMSO (1:1)
[12] = Half life in phosphate buffer at pH 7.4 and d6-DMSO (1:1) by kinetic time-course NMR method; type: physicochemical; conditions: phosphate buffer and d6-DMSO (1:1)
[13] = Synergistic growth inhibition of EML4-ALK-positive human CCL185IG cells assessed as combination index at compound:ceritinib concentration ratio of 1:1 and fractional effect of 0.76 in presence of ceritinib by Chou-Talalay method; type: functional
[14] = Cytotoxicity against EML4-ALK-positive human CCL185IG cells harboring wild type PI3KCA and CDKN2A and KRAS mutations assessed as cell growth inhibition measured after 72 hrs by MTT assay; type: functional
A549 [15] = test: Synergistic growth inhibition of ALK-negative human A549 cells assessed as combination index at compound:ceritinib concentration ratio of 1:1 and fractional effect of 0.25 in presence of ceritinib by Chou-Talalay method; type: functional
A549 [16] = test: Cytotoxicity against ALK-negative human A549 cells harboring wild type PI3KCA and CDKN2A and KRAS mutations assessed as cell growth inhibition measured after 72 hrs by MTT assay; type: functional; conditions: A549, 72 h
[17] = Synergistic growth inhibition of EML4-ALK-positive human CCL185IG cells assessed as combination index at compound:ceritinib concentration ratio of 1:1 and fractional effect of 0.5 in presence of ceritinib by Chou-Talalay method; type: functional
A549 [18] = test: Synergistic growth inhibition of ALK-negative human A549 cells assessed as combination index at compound:ceritinib concentration ratio of 1:1 and fractional effect of 0.96 in presence of ceritinib by Chou-Talalay method; type: functional
[19] = Synergistic growth inhibition of EML4-ALK-positive human CCL185IG cells assessed as combination index at compound:ceritinib concentration ratio of 1:1 and fractional effect of 0.96 in presence of ceritinib by Chou-Talalay method; type: functional
A549 [20] = test: Synergistic growth inhibition of ALK-negative human A549 cells assessed as combination index at compound:ceritinib concentration ratio of 1:1 and fractional effect of 0.76 in presence of ceritinib by Chou-Talalay method; type: functional
A549 [21] = test: Synergistic growth inhibition of ALK-negative human A549 cells assessed as combination index at compound:ceritinib concentration ratio of 1:1 and fractional effect of 0.5 in presence of ceritinib by Chou-Talalay method; type: functional
[22] = Synergistic growth inhibition of EML4-ALK-positive human CCL185IG cells assessed as combination index at compound:ceritinib concentration ratio of 1:1 and fractional effect of 0.25 in presence of ceritinib by Chou-Talalay method; type: functional
A549 [23] = test: Cytotoxicity against ALK-negative human A549 cells assessed as cell growth inhibition by Chou-Talalay method; type: functional
[24] = Cytotoxicity against EML4-ALK-positive human CCL185IG cells assessed as cell growth inhibition by Chou-Talalay method; type: functional
[25] = Drug degradation in rat plasma assessed as compound hydrolysis with first order rate constant; type: ADME, cell-free
[26] = biological target: ALK tyrosine kinase receptor (Homo sapiens) (UniProt Q9UM73); conditions: 500 nM
Chain of ALK tyrosine kinase receptor (Homo sapiens) (Q9UM73 19-1620 limits assumed): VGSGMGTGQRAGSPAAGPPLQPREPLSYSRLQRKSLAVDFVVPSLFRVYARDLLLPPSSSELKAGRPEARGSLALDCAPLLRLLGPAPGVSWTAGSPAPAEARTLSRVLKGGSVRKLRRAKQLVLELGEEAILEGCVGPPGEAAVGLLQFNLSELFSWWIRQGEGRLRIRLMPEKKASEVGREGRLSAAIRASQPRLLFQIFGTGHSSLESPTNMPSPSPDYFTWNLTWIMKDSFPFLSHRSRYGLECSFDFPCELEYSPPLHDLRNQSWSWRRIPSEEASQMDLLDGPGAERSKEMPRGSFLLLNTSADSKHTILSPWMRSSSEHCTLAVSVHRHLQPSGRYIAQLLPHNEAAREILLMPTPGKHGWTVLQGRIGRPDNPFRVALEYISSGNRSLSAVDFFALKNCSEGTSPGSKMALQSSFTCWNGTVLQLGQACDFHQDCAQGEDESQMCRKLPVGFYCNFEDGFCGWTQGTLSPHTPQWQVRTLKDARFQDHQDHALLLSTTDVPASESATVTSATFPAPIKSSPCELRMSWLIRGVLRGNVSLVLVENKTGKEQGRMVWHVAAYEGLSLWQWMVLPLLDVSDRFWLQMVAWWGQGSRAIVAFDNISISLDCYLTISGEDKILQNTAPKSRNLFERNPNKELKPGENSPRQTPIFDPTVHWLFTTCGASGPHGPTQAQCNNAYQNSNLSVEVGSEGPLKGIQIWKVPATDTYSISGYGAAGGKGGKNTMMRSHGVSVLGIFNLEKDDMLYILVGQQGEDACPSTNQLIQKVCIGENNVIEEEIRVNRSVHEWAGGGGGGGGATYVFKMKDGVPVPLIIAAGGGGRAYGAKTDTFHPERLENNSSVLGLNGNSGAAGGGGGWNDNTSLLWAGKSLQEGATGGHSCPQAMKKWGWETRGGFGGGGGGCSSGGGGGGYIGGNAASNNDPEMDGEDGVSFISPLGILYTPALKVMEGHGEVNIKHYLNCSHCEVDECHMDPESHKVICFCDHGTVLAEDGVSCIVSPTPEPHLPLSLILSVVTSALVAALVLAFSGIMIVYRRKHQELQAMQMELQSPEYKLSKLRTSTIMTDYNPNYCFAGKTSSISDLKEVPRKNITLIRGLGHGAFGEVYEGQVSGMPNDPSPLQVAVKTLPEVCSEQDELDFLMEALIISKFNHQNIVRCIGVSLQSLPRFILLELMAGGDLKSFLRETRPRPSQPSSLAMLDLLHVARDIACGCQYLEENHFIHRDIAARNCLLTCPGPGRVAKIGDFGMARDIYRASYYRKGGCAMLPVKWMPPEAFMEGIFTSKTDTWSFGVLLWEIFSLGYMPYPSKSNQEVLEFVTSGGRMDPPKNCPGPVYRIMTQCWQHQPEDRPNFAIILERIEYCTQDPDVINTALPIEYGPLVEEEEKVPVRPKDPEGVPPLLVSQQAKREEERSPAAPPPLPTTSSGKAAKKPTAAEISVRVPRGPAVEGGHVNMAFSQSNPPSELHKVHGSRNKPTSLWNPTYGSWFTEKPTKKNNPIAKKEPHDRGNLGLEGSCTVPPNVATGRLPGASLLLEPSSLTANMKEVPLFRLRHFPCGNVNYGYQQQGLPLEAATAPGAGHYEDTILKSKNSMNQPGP
Description: Inhibition of ALK-mediated STAT3 phosphorylation in EML4-ALK-positive human CCL185IG cells at 500 nM measured after 24 hrs in presence of pictilisib by Western blot analysis

[27] = biological target: ALK tyrosine kinase receptor (Homo sapiens) (UniProt Q9UM73); conditions: 500 nM; remark: listed apart in the source
Description: Inhibition of ALK-mediated STAT3 phosphorylation in EML4-ALK-positive human CCL185IG cells at 500 nM measured after 24 hrs by Western blot analysis

half-life [2] [min] | half-life [4] [min] | half-life [5] [min] | K [25] [min⁻¹] | SMILES | K [3] [h⁻¹] | K [6] [h⁻¹] | GI50 [14] [nM] | GI50 (A549 [16]) [nM] | D50 (A549 [23]) [µM] | D50 [24] [µM] | further results
1160 | 444 | 58 | – | Cc1cc(Nc2ncc(Cl)c(Nc3ccccc3S(=O)(=O)C(C)C)n2)c(OC(C)C)cc1C1CCN(C(=O)OC(C)OC(=O)C[C@H](N)C(=O)n2ncc3c(-c4nc(N5CCOCC5)c5sc(CN6CCN(S(C)(=O)=O)CC6)cc5n4)cccc32)CC1 (some centres not stated) | 0.094 | 0.036 | – | – | – | – | K [1]: 0.069 µM/s
– | – | – | – | CC(OC(=O)C[C@H](N)C(=O)n1ncc2cc(Br)ccc21)OC(=O)N1CCC(c2ccccc2)CC1 (some centres not stated) | – | – | – | – | – | – | K [7]: 1.37 h⁻¹; K [8]: 0.22 h⁻¹; K [9]: 0.84 h⁻¹; half-life [10]: 278 min; half-life [11]: 42 min; half-life [12]: 23.4 min
– | – | – | – | CS(=O)(=O)N1CCN(Cc2cc3nc(-c4cccc5[nH]ncc45)nc(N4CCOCC4)c3s2)CC1 [PICTILISIB] | – | – | 1180 | 1220 | 1.22 | 1.12 | CI [13]: 0.3; CI (A549 [15]): 0.95; CI [17]: 0.37; CI (A549 [18]): 0.35; CI [19]: 0.24; CI (A549 [20]): 0.55; CI (A549 [21]): 0.72; CI [22]: 0.52
2080 | 1160 | 38 | 0.018 | Cc1cc(Nc2ncc(Cl)c(Nc3ccccc3S(=O)(=O)C(C)C)n2)c(OC(C)C)cc1C1CCN(C(=O)OC(C)OC(=O)[C@@H](N)CC(=O)n2ncc3c(-c4nc(N5CCOCC5)c5sc(CN6CCN(S(C)(=O)=O)CC6)cc5n4)cccc32)CC1 (some centres not stated) | 0.036 | 0.02 | – | – | – | – | –
– | – | – | – | Cc1cc(Nc2ncc(Cl)c(Nc3ccccc3S(=O)(=O)C(C)C)n2)c(OC(C)C)cc1C1CCNCC1 [CERITINIB] | – | – | 565 | 845 | 0.85 | 0.57 | inhibition [26]: Active; inhibition [27]: Active
720 | 456 | 69 | 0.01 | Cc1cc(Nc2ncc(Cl)c(Nc3ccccc3S(=O)(=O)C(C)C)n2)c(OC(C)C)cc1C1CCN(C(=O)OC(C)OC(=O)CC(N)CC(=O)n2ncc3c(-c4nc(N5CCOCC5)c5sc(CN6CCN(S(C)(=O)=O)CC6)cc5n4)cccc32)CC1 (configuration not stated) | 0.091 | 0.058 | – | – | – | – | –
